Experimental data from paper PMC8994274, “A proteolysis-targeting chimera molecule selectively degrades ENL and inhibits malignant gene expression and tumor growth” (Journal of Hematology & Oncology, 2022).
Entries after “also recorded” stand apart in the source; their conditions may differ.

Assays:
Molm-13 cells = experiment: Cell differentiation (CD14, CD11b, FACS) in Molm-13 cells; assay type: cell-based, human; conditions: 3 μM for 5 days
Experimental: Treatment of Molm-13 cells with compound 1 for 7 days at 1 and 3 µM caused significant apoptosis of 22.7% and 67.6%, respectively (Fig. 6c and Additional file 1: Fig. S6).
For Annexin V apoptosis assay, 10^5 cells/mL were incubated with increasing concentrations of a compound for 7 days. Apoptosis was determined using the FITC Annexin V Apoptosis Detection Kit I (BD Bioscience) using the manufacturer’s protocol. For other FACS assays, cells were labeled with fluorochrome-conjugated monoclonal antibodies against human CD14 and CD11b (BD Biosciences) according to the manufacturer’s recommendation. Cells were analyzed using a FACS Calibur (BD Biosciences/Applied Biosystems), and data were processed using the program Flowjo (version7.6.5).

[1] = In vivo toxicity in C57BL/6 mice; conditions: 30 mg/kg/day for 13 days
Experimental: (§1) In vivo antitumor activity of compound 1 was evaluated in a commonly used mouse model of Molm-13 leukemia. First, in vivo toxicity was assessed in C57BL/6 mice. […] Next, 10^6 Molm-13 cells were injected subcutaneously into NOD-SCID mice, which developed palpable tumors in ~ 1 week and grew rapidly.

Molm-13 leukemia = experiment: Subcutaneous Molm-13 leukemia xenograft in NOD-SCID mice; assay type: in vivo
Experimental: as §1
All of the mouse studies were conducted in strict compliance with an […] protocol. NOD-SCID mice (6–8 weeks old, from Jackson lab) were obtained and maintained under specific pathogen-free conditions. 10^6 Molm13 cells in medical grade saline were inoculated subcutaneously, and palpable tumors (2–3 mm in diameter) were developed in ~ 1 week. Mice were treated with compound 1 (30 mg/kg/day for 13 days) in saline (0.1 mL) administered intraperitoneally. Tumors were measured every day and estimated by using the formula a × b^2/2.

mutant ENL (mENL) = biological target: T1, mutant ENL (mENL) (Homo sapiens, UniProt Q03111+Q96SW2, INS117NHL); experiment: Degradation of mutant and WT ENL in mENL-transfected HEK293T cells (Western blot); assay type: cell-based
T1 construct: FLAG (DYK); expressed in transfected cells; host or cells: HEK293T
Experimental: Ability of compound 1 to degrade mutant ENL, which has been implicated to cause Wilms tumor, was evaluated. […] A pcDNA3.1(+)-N-DYK plasmid containing a mutant ENL (mENL) with a short insertion of -NHL- between L117 and R118 [38] was transfected into 5 × 10^5 HEK293T cells. Upon incubation for 24 h, expression of the FLAG-tagged mENL can be dose-dependently detected with as low as 0.04 μg of the plasmid (Fig. 7a). Using a FLAG antibody appeared to be less quantitative because of a higher background staining for the control samples (Fig. 7a–c, left panels).
With 0.1 μg of the plasmid, compound 1 can efficiently degrade both WT and mutant ENL proteins with Dmax of ~ 95% at ~ 500 nM upon 24 h incubation (Fig. 7b). […] It was ineffective with 1 μg of the plasmid (not shown), presumably because the rate of mENL synthesis in cells was higher than that of 1-mediated degradation.
5 × 10^5 HEK293T cells were transfected with mENL containing pcDNA3.1(+)-N-DYK plasmid using jetPRIME (Polyplus Transfection) following the manufacturer's protocol. Upon transfection for 4 h, the media were carefully removed and the cells incubated with fresh media containing the specified concentrations of compound 1 for 24 h before further analysis (using Western blot or qPCR as described above).

ENL [2] = biological target: T2, ENL (Homo sapiens, UniProt Q03111); experiment: ENL degradation in Molm-13 cells (Western blot); assay type: cell-based; set-up: endogenous in cells; conditions: MOLM-13, Molm-13 cells, 24 h
T2 sequence (Q03111 1-559): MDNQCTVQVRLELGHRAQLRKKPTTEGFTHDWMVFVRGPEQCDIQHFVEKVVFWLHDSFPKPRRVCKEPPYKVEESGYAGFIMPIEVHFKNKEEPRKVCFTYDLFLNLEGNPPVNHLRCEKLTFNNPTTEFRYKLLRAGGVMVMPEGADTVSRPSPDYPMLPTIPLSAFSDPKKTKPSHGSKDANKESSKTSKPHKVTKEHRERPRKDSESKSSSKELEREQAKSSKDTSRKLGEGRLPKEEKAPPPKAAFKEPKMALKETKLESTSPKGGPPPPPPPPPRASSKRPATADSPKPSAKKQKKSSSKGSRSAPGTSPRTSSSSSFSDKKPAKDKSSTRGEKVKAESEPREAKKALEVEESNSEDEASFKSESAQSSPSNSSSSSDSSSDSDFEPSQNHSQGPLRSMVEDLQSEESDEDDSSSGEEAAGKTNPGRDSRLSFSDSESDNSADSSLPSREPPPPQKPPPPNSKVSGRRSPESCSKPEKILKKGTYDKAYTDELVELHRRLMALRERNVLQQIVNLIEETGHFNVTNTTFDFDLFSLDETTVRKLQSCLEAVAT
Experimental: In addition, compound 1 efficiently degraded ENL in another MLL1-r leukemia Molm-13 cells (with MLL1-AF9) with DC50 of 47 nM and Dmax of ~ 88% (Fig. 3e). Moreover, significant ENL degradation can be detected in 2 h and depletion occurred within 24 h (Fig. 3f).
3 × 10^6 cells/well were treated with increasing concentrations of a compound for 1 day, and whole proteins were extracted. Equal amounts of proteins were separated on SDS-PAGE and transferred to PVDF membranes. The blots were probed with primary antibodies, followed by anti-rabbit IgG (Thermo Scientific) secondary antibodies. The primary antibodies against ENL (Cell signaling #14893), AF9 (Novusbio #NB100-1565), DOT1L (Cell signaling #77087), AFF4 (Abcam #ab103586), Cyclin T1 (Cell signaling #81464), H3K79me2 (Cell signaling #5427), H3K79me1 (Cell signaling #9398), Histone H3 (Cell signaling #4499), FLAG (Sigma-Aldrich #F1804), β-Actin (Cell signaling #4970) were used in this study.

ENL [3] = biological target: T2, ENL; experiment: ENL degradation in MV4;11 cells (Western blot); assay type: cell-based; set-up: endogenous in cells; host or cells: MV4;11; conditions: 500 nM
ENL YEATS = biological target: T3, ENL YEATS (Homo sapiens, UniProt Q03111)
T3 sequence (Q03111 1-138): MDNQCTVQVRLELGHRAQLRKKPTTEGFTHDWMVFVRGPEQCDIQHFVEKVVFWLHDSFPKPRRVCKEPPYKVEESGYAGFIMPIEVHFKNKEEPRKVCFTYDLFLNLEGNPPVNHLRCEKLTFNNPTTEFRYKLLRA
Description: cDNA for human ENL YEATS domain (1–138) was synthesized (by Genscript) and cloned into pET-28a vector.
AlphaScreen binding assay was developed using Perkin-Elmer AlphaScreen Histidine (Nickel Chelate) Detection Kit, following a reported protocol [39]. Data were imported into Prism (version 5.0), and IC50 values from 3 independent experiments with standard deviation were obtained by using a standard dose–response curve fitting.

T1 sequence (Q03111 with tags, fused parts or gaps INS117NHL): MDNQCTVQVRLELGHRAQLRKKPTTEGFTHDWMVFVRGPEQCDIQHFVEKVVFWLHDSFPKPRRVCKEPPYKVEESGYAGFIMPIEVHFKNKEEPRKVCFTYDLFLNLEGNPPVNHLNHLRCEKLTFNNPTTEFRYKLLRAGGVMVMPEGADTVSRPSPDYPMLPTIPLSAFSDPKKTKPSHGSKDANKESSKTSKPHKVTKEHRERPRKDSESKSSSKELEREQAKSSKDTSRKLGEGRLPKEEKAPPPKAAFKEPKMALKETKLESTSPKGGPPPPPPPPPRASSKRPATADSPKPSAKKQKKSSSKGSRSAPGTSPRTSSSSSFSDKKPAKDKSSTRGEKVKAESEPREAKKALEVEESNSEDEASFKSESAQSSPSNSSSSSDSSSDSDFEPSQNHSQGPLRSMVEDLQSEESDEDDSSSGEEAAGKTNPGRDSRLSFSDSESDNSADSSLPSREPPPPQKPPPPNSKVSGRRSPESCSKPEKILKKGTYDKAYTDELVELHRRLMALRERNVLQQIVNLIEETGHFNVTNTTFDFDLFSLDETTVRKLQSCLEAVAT
T1 sequence (Q96SW2 whole entry, stated change not applied): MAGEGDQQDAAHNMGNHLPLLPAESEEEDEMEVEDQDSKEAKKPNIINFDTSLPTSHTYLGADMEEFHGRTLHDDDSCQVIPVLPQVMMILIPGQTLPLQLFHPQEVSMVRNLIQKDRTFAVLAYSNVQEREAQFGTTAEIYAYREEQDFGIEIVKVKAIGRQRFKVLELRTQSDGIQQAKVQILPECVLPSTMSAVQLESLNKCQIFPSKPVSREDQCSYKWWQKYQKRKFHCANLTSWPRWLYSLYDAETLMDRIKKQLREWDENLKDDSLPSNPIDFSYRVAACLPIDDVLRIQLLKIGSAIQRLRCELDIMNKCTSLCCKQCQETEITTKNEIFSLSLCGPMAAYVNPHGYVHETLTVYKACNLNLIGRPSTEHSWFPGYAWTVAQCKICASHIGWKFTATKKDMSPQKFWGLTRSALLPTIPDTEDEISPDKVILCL
T1 sequence (Q16531 whole entry partner): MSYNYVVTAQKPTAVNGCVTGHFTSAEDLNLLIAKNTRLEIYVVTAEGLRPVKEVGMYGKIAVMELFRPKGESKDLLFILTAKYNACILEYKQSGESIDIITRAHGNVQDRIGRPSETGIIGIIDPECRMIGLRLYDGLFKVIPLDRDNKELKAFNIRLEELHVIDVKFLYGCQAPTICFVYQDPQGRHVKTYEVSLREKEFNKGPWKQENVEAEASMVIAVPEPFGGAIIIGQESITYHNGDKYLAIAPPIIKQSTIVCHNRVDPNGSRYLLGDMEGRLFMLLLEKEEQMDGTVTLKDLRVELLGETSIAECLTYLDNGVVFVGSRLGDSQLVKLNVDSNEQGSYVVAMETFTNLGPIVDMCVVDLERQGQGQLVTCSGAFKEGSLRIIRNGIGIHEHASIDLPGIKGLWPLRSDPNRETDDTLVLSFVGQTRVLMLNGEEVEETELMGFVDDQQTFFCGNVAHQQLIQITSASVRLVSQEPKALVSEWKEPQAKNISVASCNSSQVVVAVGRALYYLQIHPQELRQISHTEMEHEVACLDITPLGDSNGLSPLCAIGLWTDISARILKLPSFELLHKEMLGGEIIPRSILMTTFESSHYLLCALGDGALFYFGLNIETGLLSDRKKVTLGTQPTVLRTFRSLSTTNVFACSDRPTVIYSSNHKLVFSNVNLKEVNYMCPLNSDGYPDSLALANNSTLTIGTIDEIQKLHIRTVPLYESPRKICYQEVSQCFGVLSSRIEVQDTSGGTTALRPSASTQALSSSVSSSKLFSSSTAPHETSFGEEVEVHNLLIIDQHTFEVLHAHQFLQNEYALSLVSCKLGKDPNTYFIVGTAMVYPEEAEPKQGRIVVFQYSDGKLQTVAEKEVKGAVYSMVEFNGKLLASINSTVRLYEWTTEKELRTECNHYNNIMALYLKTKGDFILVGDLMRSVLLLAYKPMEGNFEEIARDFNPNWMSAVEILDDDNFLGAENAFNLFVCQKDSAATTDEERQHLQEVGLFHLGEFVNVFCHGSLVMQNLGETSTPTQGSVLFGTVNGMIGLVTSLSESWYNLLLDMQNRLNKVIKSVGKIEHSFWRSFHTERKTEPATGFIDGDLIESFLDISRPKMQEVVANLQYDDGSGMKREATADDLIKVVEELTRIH

## C[C@H]1CCCN1Cc1nc2cc(NC(=O)c3ccc4c(cnn4CCCCCCCCNc4cccc5c4C(=O)N(C4CCC(=O)NC4=O)C5=O)c3)ccc2[nH]1 (some centres unmarked) [Compound 1]
Molm-13 cells
  Cell differentiation (cells with high levels of CD14 and CD11b): induced cell differentiation
[1]
  Body weight: did not cause significant weight losses
  Hematopoiesis and overt toxicities: did not inhibit normal hematopoiesis or cause other overt toxicities
[1]; blood test on day-14, 30 mg/kg/day
  Blood cell counts versus control: no significant changes; also recorded: no significant differences
Molm-13 leukemia; 30 mg/kg/day for Day 3–15
  Body weight: did not cause significant weight losses
Molm-13 leukemia; 30 mg/kg/day for Day 3–15, intraperitoneally
  Tumor growth: significantly inhibited tumor growth
Molm-13 leukemia; 30 mg/kg/day for Day 3–15, intraperitoneally, p < 0.01, 30 mg/kg/day
  Animal survival: prolonged animal survivals
Mutant ENL (mENL); 0.2 μg of the plasmid, 500 nM, 24 h
  Degradation of WT and mutant ENLs: reduced efficiency
Mutant ENL (mENL); 1 μg of the plasmid
  Degradation of WT and mutant ENLs: ineffective
Mutant ENL (mENL); HEK-293T, 0.1 μg of the plasmid, ~ 500 nM, 24 h
  Dmax: ~95%
ENL [2]
  Dmax: 88%
ENL [3]
  Time at which significant ENL degradation can be detected: 2 h
  Time to ENL depletion: ≤ 24 h
ENL YEATS
  IC50: 170 nM
